Assay results from ChEMBL document CHEMBL4350983, “Combining structure- and property-based optimization to identify selective FLT3-ITD inhibitors with good antitumor efficacy in AML cell inoculated mouse xenograft model” (Eur J Med Chem, 2019).

Tests used:
[1] = Half-life in Sprague-Dawley rat at 1 mg/kg, iv measured up to 24 hrs by LC-MS/MS analysis; assay type: ADME, organism-based; details: in vivo
[2] = Half-life in Sprague-Dawley rat at 5 mg/kg, po measured up to 24 hrs by LC-MS/MS analysis; assay type: ADME, organism-based; details: in vivo
[3] = Cmax in Sprague-Dawley rat at 1 mg/kg, iv measured up to 24 hrs by LC-MS/MS analysis; assay type: ADME, organism-based; parameters: dose 1 mg/kg, route intravenous; details: in vivo
[4] = Cmax in Sprague-Dawley rat at 5 mg/kg, po measured up to 24 hrs by LC-MS/MS analysis; assay type: ADME, organism-based; parameters: dose 5 mg/kg, route oral; details: in vivo
[5] = Tmax in Sprague-Dawley rat at 5 mg/kg, po measured up to 24 hrs by LC-MS/MS analysis; assay type: ADME, organism-based; details: in vivo
[6] = AUCt in Sprague-Dawley rat at 1 mg/kg, iv measured up to 24 hrs by LC-MS/MS analysis; assay type: ADME, organism-based; parameters: dose 1 mg/kg, time < 24 hr, route intravenous; details: in vivo
[7] = AUCt in Sprague-Dawley rat at 5 mg/kg, po measured up to 24 hrs by LC-MS/MS analysis; assay type: ADME, organism-based; parameters: time < 24 hr, dose 5 mg/kg, route oral; details: in vivo
[8] = AUC (0 to infinity) in Sprague-Dawley rat at 5 mg/kg, po measured up to 24 hrs by LC-MS/MS analysis; assay type: ADME, organism-based; parameters: dose 5 mg/kg, route oral, time infinity; details: in vivo
[9] = AUC (0 to infinity) in Sprague-Dawley rat at 1 mg/kg, iv measured up to 24 hrs by LC-MS/MS analysis; assay type: ADME, organism-based; parameters: dose 1 mg/kg, time infinity, route intravenous; details: in vivo
[10] = Mean residence time (0 to t) in Sprague-Dawley rat at 1 mg/kg, iv measured up to 24 hrs by LC-MS/MS analysis; assay type: ADME, organism-based; details: in vivo
[11] = Mean residence time (0 to t) in Sprague-Dawley rat at 5 mg/kg, po measured up to 24 hrs by LC-MS/MS analysis; assay type: ADME, organism-based; details: in vivo
[12] = Apparent volume of distribution in Sprague-Dawley rat at 1 mg/kg, iv measured up to 24 hrs by LC-MS/MS analysis; assay type: ADME, organism-based; details: in vivo, read-out: Vz
[13] = Apparent volume of distribution in Sprague-Dawley rat at 5 mg/kg, po measured up to 24 hrs by LC-MS/MS analysis; assay type: ADME, organism-based; details: in vivo
[14] = Apparent clearance in Sprague-Dawley rat at 1 mg/kg, iv measured up to 24 hrs by LC-MS/MS analysis; assay type: ADME, organism-based; details: in vivo, read-out: CL(app) (converted)
[15] = Apparent clearance in Sprague-Dawley rat at 5 mg/kg, po measured up to 24 hrs by LC-MS/MS analysis; assay type: ADME, organism-based; details: in vivo, read-out: CL(app) (converted)
[16] = Oral bioavailability in Sprague-Dawley rat at 5 mg/kg measured up to 24 hrs by LC-MS/MS analysis; assay type: ADME, organism-based; details: in vivo
[17] = human, microsomes, 0.25 h, 1 µM
[18] = rat, microsomes, 0.25 h, 1 µM
[19] = in vitro; details: human, liver microsomes
[20] = in vitro; details: rat, liver microsomes

- half-life [1]: 1.96 h
- half-life [2]: 3.07 h
- Cmax [3]: 205 ng/mL
- Cmax [4]: 27 ng/mL
- Tmax [5]: 2.83 h
- AUC(0-t) at 24 h [6]: 152 ng·h/mL
- AUC(0-t) at 24 h [7]: 173 ng·h/mL
- AUC(0-inf) [8]: 194 ng·h/mL
- AUC(0-inf) [9]: 161 ng·h/mL
- MRT last at 24 h [10]: 2.75 h
- MRT last at 24 h [11]: 5.9 h
- Vd [12]: 18.2 L/kg
- Vz [13]: 105.05 L/kg
- clearance [14]: 110 mL/min/kg
- CL/F [15]: 445 mL/min/kg
- bioavailability [16]: 22.8%
- CLH [17]: 0.0118 mL/min/kg
- CLH [18]: 0.168 mL/min/kg
- half-life at 0.25 h, 1 µM [19]: 1.95 h
- half-life at 0.25 h, 1 µM [20]: 8.27 min
SMILES: CN1CCC(Nc2ccc(C(=O)Nc3cc(-c4ccc5c(c4)OCO5)n[nH]3)cc2)CC1
